From ChEMBL document CHEMBL1201862, “PubChem BioAssay data set” (2004)
“And” between values parts separate entries of the source, which are not always exact repeats. Equal entries are not always repeated.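 All cell lines were grown in 96-well plates and treated with compound for 48 hours. GI50: concentration for 50% inhibition of growth.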 The source made the active and inactive calls. No stated cut-off is given here; in the data, active = GI50 up to about 1.1 µM and inactive = higher.

Columns and labels:
Test in all cases: NCI anticancer screen, dose series, 48 h
NCI-H23 = test system: NCI-H23
MDA-MB-435 = test system: MDA-MB-435
MDA-MB-231 = test system: MDA-MB-231
MCF7 = test system: MCF7
Hs-578T = test system: Hs-578T
DU-145 = test system: DU-145
MDA-N = test system: MDA-N
NCI-H226 = test system: NCI-H226
NCI/ADR-RES = test system: NCI/ADR-RES
SF-539 = test system: SF-539
T47D = test system: T47D
SK-MEL-5 = test system: SK-MEL-5
PC-3 = test system: PC-3
KM12 = test system: KM12
HCT-15 = test system: HCT-15
786-0 = test system: 786-0
Malme-3M = test system: Malme-3M
COLO 205 = test system: COLO 205
BT-549 = test system: BT-549

SMILES | GI50 (NCI-H23) | GI50 (MDA-MB-435) | GI50 (MDA-MB-231) | GI50 (MCF7) | GI50 (Hs-578T) | GI50 (DU-145) | GI50 (MDA-N) | GI50 (NCI-H226) | GI50 (NCI/ADR-RES) | GI50 (SF-539) | GI50 (T47D) | GI50 (SK-MEL-5) | GI50 (PC-3) | GI50 (KM12) | GI50 (HCT-15) [µM] | GI50 (786-0) | GI50 (Malme-3M) | GI50 (COLO 205) | GI50 (BT-549)
O=C1OC(c2ccccc2)=N/C1=C\c1ccccc1 | > 100 µM (inactive) | 64 µM (inactive) and 56 µM (inactive) | > 100 µM (inactive) | 48.4 µM (inactive) and 96.6 µM (inactive) | 58.7 µM (inactive) and 36.7 µM (inactive) | > 100 µM (inactive) and 59 µM (inactive) | 44.7 µM (inactive) | 24 µM (inactive) and 36.6 µM (inactive) | 29.2 µM (inactive) and 40.7 µM (inactive) | 19 µM (inactive) and 21.1 µM (inactive) | > 100 µM (inactive) | 38.1 µM (inactive) and 29.4 µM (inactive) | > 100 µM (inactive) | 34.8 µM (inactive) and 26.6 µM (inactive) |  |  |  |  | 
CC1(CO)OC(n2cnc3c(N)ncnc32)C(O)C1O (stereo not given) | > 100 µM (inactive) |  |  |  |  |  |  |  |  | > 100 µM (inactive) |  | > 100 µM (inactive) |  | > 100 µM (inactive) | > 100 | > 100 µM (inactive) | > 100 µM (inactive) | > 100 µM (inactive) | 
O=C1NC(c2cccc3ccccc23)Nc2ccccc21 (stereo not given) | 0.0931 µM (active) | 0.0153 µM (active) | 0.0873 µM (active) | < 0.0171 µM (active) | 0.0147 µM (active) | 0.064 µM (active) |  | 0.0875 µM (active) | < 0.0199 µM (active) | 0.0363 µM (active) |  | < 0.0202 µM (active) | 0.0423 µM (active) | 0.0399 µM (active) | < 0.0224 | 0.0593 µM (active) | 0.0463 µM (active) | 0.0458 µM (active) | 0.454 µM (active)
CN(CC(=O)O)c1ncc2c(n1)-c1ccccc1OC2c1ccccc1 (stereo not given) | 51.6 µM (inactive) | > 100 µM (inactive) | > 100 µM (inactive) | > 100 µM (inactive) | > 100 µM (inactive) | > 100 µM (inactive) | > 100 µM (inactive) | 86.7 µM (inactive) | > 100 µM (inactive) | > 100 µM (inactive) |  | > 100 µM (inactive) | 61.1 µM (inactive) | 79.6 µM (inactive) | > 100 |  | > 100 µM (inactive) | > 100 µM (inactive) | 
CC(C)[C@H]1CO[C@@H]2O[C@H](C)CC(=O)N21 | > 100 µM (inactive) |  |  |  |  |  |  | > 100 µM (inactive) |  | > 100 µM (inactive) |  | > 100 µM (inactive) |  | > 100 µM (inactive) | > 100 | > 100 µM (inactive) | > 100 µM (inactive) | > 100 µM (inactive) | 
CCCCCCC1NN(C(C)=O)C(CCCCCC)NN1C(C)=O (stereo not given) | > 100 µM (inactive) |  |  |  |  |  |  | > 100 µM (inactive) |  | > 100 µM (inactive) |  | > 100 µM (inactive) |  | > 100 µM (inactive) | > 100 | > 100 µM (inactive) | > 100 µM (inactive) | > 100 µM (inactive) | 
CC1=C2c3ccccc3N(C(=O)/C=C/C(=O)O)[C@H]2[C@H]2C(=O)OC(=O)[C@H]2C1 | > 10 µM (inactive) | > 10 µM (inactive) | > 10 µM (inactive) | > 10 µM (inactive) | > 10 µM (inactive) | > 10 µM (inactive) | > 10 µM (inactive) | > 10 µM (inactive) | > 10 µM (inactive) | > 10 µM (inactive) | > 10 µM (inactive) | > 10 µM (inactive) | > 10 µM (inactive) | > 10 µM (inactive) | > 10 |  | > 10 µM (inactive) | > 10 µM (inactive) | 
CN(C)CC(CO)(CN(C)C)CN(C)C | > 100 µM (inactive) |  |  | > 100 µM (inactive) |  | > 100 µM (inactive) | > 100 µM (inactive) | > 100 µM (inactive) | > 100 µM (inactive) | > 100 µM (inactive) |  | > 100 µM (inactive) | > 100 µM (inactive) | > 100 µM (inactive) | > 100 | > 100 µM (inactive) | > 100 µM (inactive) | > 100 µM (inactive) | > 100 µM (inactive)
Cn1nc(-c2ccccc2)c(C(=O)/C=C/c2ccccc2)c(N2CCCC2)c1=O | 10.4 µM (inactive) |  |  |  |  |  |  |  |  | 13.2 µM (inactive) |  | 15.3 µM (inactive) |  |  | 13.5 | 13.2 µM (inactive) |  | 14.9 µM (inactive) | 
O=C(CCC(NC(=O)OCc1ccccc1)C(=O)OCc1ccccc1)Nc1cccc(OCc2ccccc2)c1 (stereo not given) | 20.3 µM (inactive) | 20 µM (inactive) | 25.4 µM (inactive) | 20.7 µM (inactive) | 18.4 µM (inactive) | 28.4 µM (inactive) | 32.1 µM (inactive) | 29.1 µM (inactive) | 36.2 µM (inactive) | 19.2 µM (inactive) | 19.5 µM (inactive) |  | 13.2 µM (inactive) | 34.8 µM (inactive) | 18.3 | 17.7 µM (inactive) | 14.5 µM (inactive) | 15.7 µM (inactive) | 
Clc1ccc(CCn2ccc3ccccc32)c(Cl)c1 | > 100 µM (inactive) | > 100 µM (inactive) | > 100 µM (inactive) | > 100 µM (inactive) | > 100 µM (inactive) | > 100 µM (inactive) |  | > 100 µM (inactive) | > 100 µM (inactive) | > 100 µM (inactive) |  | > 100 µM (inactive) | > 100 µM (inactive) | > 100 µM (inactive) | > 100 | > 100 µM (inactive) | > 100 µM (inactive) | > 100 µM (inactive) | > 100 µM (inactive)
CN(C)N1C(=O)C(=O)N(c2cccc3ccccc23)C1=O | > 10 µM (inactive) | > 10 µM (inactive) | > 10 µM (inactive) | > 10 µM (inactive) | > 10 µM (inactive) | > 10 µM (inactive) | > 10 µM (inactive) | > 10 µM (inactive) | > 10 µM (inactive) | > 10 µM (inactive) | > 10 µM (inactive) | > 10 µM (inactive) | > 10 µM (inactive) | > 10 µM (inactive) | > 10 |  | > 10 µM (inactive) | > 10 µM (inactive) | 
CC1(CO)COS(=O)OC1 (stereo not given) | > 100 µM (inactive) | > 100 µM (inactive) | > 100 µM (inactive) | > 100 µM (inactive) | > 100 µM (inactive) | > 100 µM (inactive) | > 100 µM (inactive) | > 100 µM (inactive) | > 100 µM (inactive) |  | > 100 µM (inactive) | > 100 µM (inactive) | > 100 µM (inactive) | > 100 µM (inactive) | > 100 |  |  | > 100 µM (inactive) | 
c1ccc(/N=C(\N2CCCCC2)N(CCN2CCCCC2)c2ccccc2)cc1 | 0.773 µM (active) | 1.51 µM (inactive) | 1.39 µM (inactive) |  | 0.944 µM (active) | 2.1 µM (inactive) | 0.718 µM (active) | 2.62 µM (inactive) | 1.65 µM (inactive) |  | 1.08 µM (active) | 1.36 µM (inactive) | 0.53 µM (active) |  | 1.68 |  |  | 0.658 µM (active) | 
OC1C2CCC3C2CC(C(O)(c2ccccc2)c2ccccc2)C13 (stereo not given) | 44.5 µM (inactive) | 32.6 µM (inactive) | 29.6 µM (inactive) | 84.5 µM (inactive) | 45.9 µM (inactive) | > 100 µM (inactive) | 33.3 µM (inactive) | 28.6 µM (inactive) | 36.6 µM (inactive) | 38.3 µM (inactive) | 79.3 µM (inactive) | 28.6 µM (inactive) | 21.4 µM (inactive) | 61.7 µM (inactive) | 31.5 | 37.5 µM (inactive) | 28.4 µM (inactive) | 18.5 µM (inactive) | 
COc1ccc(Nc2nc(N)c(C(=O)c3c[nH]c4ccccc34)s2)cc1 | 3.4 µM (inactive) | 0.161 µM (active) | 9.91 µM (inactive) | 1.03 µM (active) |  | 2.2 µM (inactive) | 0.31 µM (active) | 11.1 µM (inactive) | 1 µM (active) | 2.42 µM (inactive) | 3.6 µM (inactive) | 1.3 µM (inactive) | 2.15 µM (inactive) | 0.689 µM (active) | 0.433 | 2.15 µM (inactive) | 3.44 µM (inactive) | 0.731 µM (active) | 2.43 µM (inactive)
CC12C3C4C1C1C2C3C41CO (stereo not given) |  | > 100 µM (inactive) | > 100 µM (inactive) | > 100 µM (inactive) |  | > 100 µM (inactive) | > 100 µM (inactive) | > 100 µM (inactive) | > 100 µM (inactive) | > 100 µM (inactive) |  | > 100 µM (inactive) |  | > 100 µM (inactive) | > 100 | > 100 µM (inactive) |  | > 100 µM (inactive) | 
O=C1Oc2ccccc2C(=O)/C1=C\NC(=S)c1ccncc1 | > 100 µM (inactive) | 98.4 µM (inactive) | > 100 µM (inactive) | > 100 µM (inactive) |  | > 100 µM (inactive) | > 100 µM (inactive) | > 100 µM (inactive) | > 100 µM (inactive) | > 100 µM (inactive) | > 100 µM (inactive) | > 100 µM (inactive) | 94.4 µM (inactive) | > 100 µM (inactive) | 69.3 | > 100 µM (inactive) |  | > 100 µM (inactive) | 31.6 µM (inactive)
Cc1c2cc[n+](C)cc2c(C)c2c1[nH]c1ccccc12 | 0.773 µM (active) | 9.02 µM (inactive) |  | 2.44 µM (inactive) |  | 0.52 µM (active) | 1.92 µM (inactive) | 0.312 µM (active) |  | 0.505 µM (active) | 0.157 µM (active) | 1.28 µM (inactive) | 4.83 µM (inactive) | 0.429 µM (active) |  |  | 0.953 µM (active) | 0.538 µM (active) | 2.38 µM (inactive)
